Test results reported in patent EP1171107B1, “USE OF A PHARMACEUTICAL COMPOSITION IN THE MANUFACTURE OF A MEDICAMENT FOR THE TREATMENT OF PATHOLOGICAL CONDITIONS OF THE EYE CAUSED BY BACTERIA, VIRUSES, FUNGI, YEASTS AND PROTOZOA” (Dr. GERHARD MANN chem.-pharm. Fabrik GmbH, priority 1999, dated 2000).

Assays:
Assay type in all cases: cell-based
E.coli [1] = test: Quantitative germ count (re-isolation, surface method) after inoculating the test preparation; conditions: Ausgangskeimzahl 2,7 x 10^5 KBE/ml
H.influenzae = test: as above; conditions: Ausgangskeimzahl 2,8 x 10^5 KBE/ml
How it was run: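 Surviving germs were counted by the surface method: an aliquot was spiral-plated on Kochblut-Agar and incubated at 33±2°C for max. 4 Tage, giving re-isolated counts in KBE/ml with a detection limit of 100 KBE/ml. Initial germ counts were also set by spiral-plater surface plating. The H. influenzae strain was pretested biochemically for identity and purity.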

S.aureus [2] = test: as above; conditions: Ausgangskeimzahl 2,6 x 10^5 KBE/ml
How it was run: (§1)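 Test preparations (5 ml) inoculated with ca. 10^5 CFU/ml of each strain, one tube per time point. After 2, 6, 8, 24, 32, 48 and 72 h, cells pelleted, washed and resuspended in NaCl-peptone buffer, then spiral-plated on Caso agar and incubated at 33±2 °C up to 4 days. Detection limit 100 CFU/ml.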

Sc. pneumoniae [3] = test: as above; conditions: Ausgangskeimzahl 3,7 x 10^5 KBE/ml
How it was run: as §1

P.aeruginosa [4] = test: as above; conditions: Ausgangskeimzahl 2,7 x 10^5 KBE/ml
How it was run: as §1

S.epidermidis [5] = test: as above; conditions: Ausgangskeimzahl 2,1 x 10^5 KBE/ml
How it was run: as §1

E.coli [6] = test: Qualitative examination: enrichment of the inoculated test preparation in broth
How it was run: (§2)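 Strains from lyophilisate, subcultured on Caso or cooked-blood agar, identity checked biochemically. Each substance spiked at ca. 10^5 CFU/ml; one separate tube per time point (2, 6, 8, 24, 32, 48, 72 h). Washed twice by centrifugation, then enriched in broth at 33±2°C, max 4 days.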

S.aureus [7] = test: as above
How it was run: as §2

S.epidermidis [8] = test: as above
How it was run: as §2

Sc. pneumoniae [9] = test: as above
How it was run: as §2

P.aeruginosa [10] = test: as above
How it was run: as §2

“Benzalkoniumchlorid [Benzalkoniumchlorid 0,001 Gew.-%]” was tested, and the “Ergebnis der Reisolierung (in KBE/ml)” value (E.coli [1]; 2 h after inoculation) was under 100 KBE/ml, the “Ergebnis der Reisolierung (in KBE/ml)” value (E.coli [1]; 4 h after inoculation) was under 100 KBE/ml and the “Ergebnis der Reisolierung (in KBE/ml)” value (E.coli [1]; 6 h after inoculation) was under 100 KBE/ml. The “Ergebnis der Reisolierung (in KBE/ml)” value (E.coli [1]; 8 h after inoculation) was under 100 KBE/ml, the “Ergebnis der Reisolierung (in KBE/ml)” value (E.coli [1]; 24 h after inoculation) was under 100 KBE/ml and the “Ergebnis der Reisolierung (in KBE/ml)” value (E.coli [1]; 32 h after inoculation) was under 100 KBE/ml. For the same substance, the “Ergebnis der Reisolierung (in KBE/ml)” value (E.coli [1]; 48 h after inoculation) was under 100 KBE/ml, the “Ergebnis der Reisolierung (in KBE/ml)” value (E.coli [1]; 72 h after inoculation) was under 100 KBE/ml and the “Ergebnis der Reisolierung (in KBE/ml)” value (H.influenzae; 2 h after inoculation) was under 100 KBE/ml. The “Ergebnis der Reisolierung (in KBE/ml)” value (H.influenzae; 4 h after inoculation) was under 100 KBE/ml, the “Ergebnis der Reisolierung (in KBE/ml)” value (H.influenzae; 6 h after inoculation) was under 100 KBE/ml and the “Ergebnis der Reisolierung (in KBE/ml)” value (H.influenzae; 8 h after inoculation) was under 100 KBE/ml. The “Ergebnis der Reisolierung (in KBE/ml)” value (H.influenzae; 24 h after inoculation) was under 100 KBE/ml, the “Ergebnis der Reisolierung (in KBE/ml)” value (H.influenzae; 32 h after inoculation) was under 100 KBE/ml and the “Ergebnis der Reisolierung (in KBE/ml)” value (H.influenzae; 48 h after inoculation) was under 100 KBE/ml. For the same substance, the “Ergebnis der Reisolierung (in KBE/ml)” value (H.influenzae; 72 h after inoculation) was under 100 KBE/ml, the “Ergebnis der Reisolierung (in KBE/ml)” value (S.aureus [2]; 2 h after inoculation) was under 100 KBE/ml and the “Ergebnis der Reisolierung (in KBE/ml)” value (S.aureus [2]; 4 h after inoculation) was under 100 KBE/ml. The “Ergebnis der Reisolierung (in KBE/ml)” value (S.aureus [2]; 6 h after inoculation) was under 100 KBE/ml, the “Ergebnis der Reisolierung (in KBE/ml)” value (S.aureus [2]; 8 h after inoculation) was under 100 KBE/ml and the “Ergebnis der Reisolierung (in KBE/ml)” value (S.aureus [2]; 24 h after inoculation) was under 100 KBE/ml. The “Ergebnis der Reisolierung (in KBE/ml)” value (S.aureus [2]; 32 h after inoculation) was under 100 KBE/ml, the “Ergebnis der Reisolierung (in KBE/ml)” value (S.aureus [2]; 48 h after inoculation) was under 100 KBE/ml and the “Ergebnis der Reisolierung (in KBE/ml)” value (S.aureus [2]; 72 h after inoculation) was under 100 KBE/ml. The “Ergebnis der Reisolierung (in KBE/ml)” value (Sc. pneumoniae [3]; 2 h after inoculation) was under 100 KBE/ml, the “Ergebnis der Reisolierung (in KBE/ml)” value (Sc. pneumoniae [3]; 4 h after inoculation) was under 100 KBE/ml and the “Ergebnis der Reisolierung (in KBE/ml)” value (Sc. pneumoniae [3]; 6 h after inoculation) was under 100 KBE/ml. For the same substance, the “Ergebnis der Reisolierung (in KBE/ml)” value (Sc. pneumoniae [3]; 8 h after inoculation) was under 100 KBE/ml, the “Ergebnis der Reisolierung (in KBE/ml)” value (Sc. pneumoniae [3]; 24 h after inoculation) was under 100 KBE/ml and the “Ergebnis der Reisolierung (in KBE/ml)” value (Sc. pneumoniae [3]; 32 h after inoculation) was under 100 KBE/ml. The “Ergebnis der Reisolierung (in KBE/ml)” value (Sc. pneumoniae [3]; 48 h after inoculation) was under 100 KBE/ml, the “Ergebnis der Reisolierung (in KBE/ml)” value (Sc. pneumoniae [3]; 72 h after inoculation) was under 100 KBE/ml and the “Ergebnis der Reisolierung (in KBE/ml)” value (P.aeruginosa [4]; 2 h after inoculation) was under 100 KBE/ml. For the same substance, the “Ergebnis der Reisolierung (in KBE/ml)” value (P.aeruginosa [4]; 4 h after inoculation) was under 100 KBE/ml, the “Ergebnis der Reisolierung (in KBE/ml)” value (P.aeruginosa [4]; 6 h after inoculation) was under 100 KBE/ml and the “Ergebnis der Reisolierung (in KBE/ml)” value (P.aeruginosa [4]; 8 h after inoculation) was under 100 KBE/ml. For the same substance, the “Ergebnis der Reisolierung (in KBE/ml)” value (P.aeruginosa [4]; 24 h after inoculation) was under 100 KBE/ml, the “Ergebnis der Reisolierung (in KBE/ml)” value (P.aeruginosa [4]; 32 h after inoculation) was under 100 KBE/ml and the “Ergebnis der Reisolierung (in KBE/ml)” value (P.aeruginosa [4]; 48 h after inoculation) was under 100 KBE/ml. For the same substance, the “Ergebnis der Reisolierung (in KBE/ml)” value (P.aeruginosa [4]; 72 h after inoculation) was under 100 KBE/ml, the “Ergebnis der Reisolierung (in KBE/ml)” value (S.epidermidis [5]; 2 h after inoculation) was under 100 KBE/ml and the “Ergebnis der Reisolierung (in KBE/ml)” value (S.epidermidis [5]; 4 h after inoculation) was under 100 KBE/ml. The “Ergebnis der Reisolierung (in KBE/ml)” value (S.epidermidis [5]; 6 h after inoculation) was under 100 KBE/ml, the “Ergebnis der Reisolierung (in KBE/ml)” value (S.epidermidis [5]; 8 h after inoculation) was under 100 KBE/ml and the “Ergebnis der Reisolierung (in KBE/ml)” value (S.epidermidis [5]; 24 h after inoculation) was under 100 KBE/ml. For the same substance, the “Ergebnis der Reisolierung (in KBE/ml)” value (S.epidermidis [5]; 32 h after inoculation) was under 100 KBE/ml, the “Ergebnis der Reisolierung (in KBE/ml)” value (S.epidermidis [5]; 48 h after inoculation) was under 100 KBE/ml and the “Ergebnis der Reisolierung (in KBE/ml)” value (S.epidermidis [5]; 72 h after inoculation) was under 100 KBE/ml. The “Ergebnis der Reisolierung qualitiativ (+/-) nach Anreicherung” value (from here on “Ergebnis der Reisolierung qualitiativ”) (E.coli [6]; 2 h after inoculation) was “-”, the “Ergebnis der Reisolierung qualitiativ” value (E.coli [6]; 4 h after inoculation) was “-” and the “Ergebnis der Reisolierung qualitiativ” value (E.coli [6]; 6 h after inoculation) was “-”. For the same substance, the “Ergebnis der Reisolierung qualitiativ” value (E.coli [6]; 8 h after inoculation) was “-”, the “Ergebnis der Reisolierung qualitiativ” value (E.coli [6]; 24 h after inoculation) was “-” and the “Ergebnis der Reisolierung qualitiativ” value (E.coli [6]; 32 h after inoculation) was “-”. The “Ergebnis der Reisolierung qualitiativ” value (E.coli [6]; 48 h after inoculation) was “-”, the “Ergebnis der Reisolierung qualitiativ” value (E.coli [6]; 72 h after inoculation) was “-” and the “Ergebnis der Reisolierung qualitiativ” value (S.aureus [7]; 2 h after inoculation) was “-”. The “Ergebnis der Reisolierung qualitiativ” value (S.aureus [7]; 4 h after inoculation) was “-”, the “Ergebnis der Reisolierung qualitiativ” value (S.aureus [7]; 6 h after inoculation) was “-” and the “Ergebnis der Reisolierung qualitiativ” value (S.aureus [7]; 8 h after inoculation) was “-”. The “Ergebnis der Reisolierung qualitiativ” value (S.aureus [7]; 24 h after inoculation) was “-”, the “Ergebnis der Reisolierung qualitiativ” value (S.aureus [7]; 32 h after inoculation) was “-” and the “Ergebnis der Reisolierung qualitiativ” value (S.aureus [7]; 48 h after inoculation) was “-”. The “Ergebnis der Reisolierung qualitiativ” value (S.aureus [7]; 72 h after inoculation) was “-”, the “Ergebnis der Reisolierung qualitiativ” value (S.epidermidis [8]; 2 h after inoculation) was “-” and the “Ergebnis der Reisolierung qualitiativ” value (S.epidermidis [8]; 4 h after inoculation) was “-”. For the same substance, the “Ergebnis der Reisolierung qualitiativ” value (S.epidermidis [8]; 6 h after inoculation) was “-”, the “Ergebnis der Reisolierung qualitiativ” value (S.epidermidis [8]; 8 h after inoculation) was “-” and the “Ergebnis der Reisolierung qualitiativ” value (S.epidermidis [8]; 24 h after inoculation) was “-”. The “Ergebnis der Reisolierung qualitiativ” value (S.epidermidis [8]; 32 h after inoculation) was “-”, the “Ergebnis der Reisolierung qualitiativ” value (S.epidermidis [8]; 48 h after inoculation) was “-” and the “Ergebnis der Reisolierung qualitiativ” value (S.epidermidis [8]; 72 h after inoculation) was “-”. The “Ergebnis der Reisolierung qualitiativ” value (Sc. pneumoniae [9]; 2 h after inoculation) was “-”, the “Ergebnis der Reisolierung qualitiativ” value (Sc. pneumoniae [9]; 4 h after inoculation) was “-” and the “Ergebnis der Reisolierung qualitiativ” value (Sc. pneumoniae [9]; 6 h after inoculation) was “-”. For the same substance, the “Ergebnis der Reisolierung qualitiativ” value (Sc. pneumoniae [9]; 8 h after inoculation) was “-”, the “Ergebnis der Reisolierung qualitiativ” value (Sc. pneumoniae [9]; 24 h after inoculation) was “-” and the “Ergebnis der Reisolierung qualitiativ” value (Sc. pneumoniae [9]; 32 h after inoculation) was “-”. The “Ergebnis der Reisolierung qualitiativ” value (Sc. pneumoniae [9]; 48 h after inoculation) was “-”, the “Ergebnis der Reisolierung qualitiativ” value (Sc. pneumoniae [9]; 72 h after inoculation) was “-” and the “Ergebnis der Reisolierung qualitiativ” value (P.aeruginosa [10]; 2 h after inoculation) was “-”. The “Ergebnis der Reisolierung qualitiativ” value (P.aeruginosa [10]; 4 h after inoculation) was “-”, the “Ergebnis der Reisolierung qualitiativ” value (P.aeruginosa [10]; 6 h after inoculation) was “-” and the “Ergebnis der Reisolierung qualitiativ” value (P.aeruginosa [10]; 8 h after inoculation) was “-”. For the same substance, the “Ergebnis der Reisolierung qualitiativ” value (P.aeruginosa [10]; 24 h after inoculation) was “-”, the “Ergebnis der Reisolierung qualitiativ” value (P.aeruginosa [10]; 32 h after inoculation) was “-” and the “Ergebnis der Reisolierung qualitiativ” value (P.aeruginosa [10]; 48 h after inoculation) was “-”. The “Ergebnis der Reisolierung qualitiativ” value (P.aeruginosa [10]; 72 h after inoculation) was “-”.
